Consider five compounds from paper PMC6888004 (International Journal of Molecular Sciences, 2019).

Series [1] can be described thus: Stability in EMEM cell culture medium at 37 °C (HPLC-UV). It counts as in vitro ADME. To be noted: for stability in cell culture medium: EMEM, 37 °C, up to 72 h. As to the method: Stock solutions of compounds in DMSO were diluted to 10 µM in complemented EMEM (Lonza). Samples were incubated for 2, 6, 24, and 72 h at 37 °C. After the incubation, acetonitrile (VWR, cat. no.: 83639.320) was added to the solutions (1:1 ratio, to achieve 50% acetonitrile content). The samples were vortexed and centrifuged (13,000× g, 10 min). Supernatants were measured by HPLC-UV. HPLC method and chromatograms are available in the Supplementary Information. Stability was calculated using the external standard method. Decay curves were generated and half-life was calculated by GraphPad Prism 5.02 software.

Another series concerns EBC-1 NSCLC cells. Put plainly: CellTiter-Glo cell viability assay on EBC-1 cells. It counts as cell-based. To be noted: CellTiter-Glo, 72 h treatment, read-out: IC50, viability inhibition on EBC-1 cells. How it is done: EBC-1 cell line was obtained from the Japanese Collection of Research Bioresources Cell Bank (JCRB, Solana Beach, CA 92075 USA) and cultured in Eagle’s minimum essential medium (EMEM) (Lonza, Basel, Switzerland, cat. no.: BE12-611F,) supplemented with 1% MycoZap (Lonza, cat. no.: VZA-2012) and 10% fetal bovine serum (FBS) (Thermo Fisher Scientific, Waltham, MA, USA, cat. no.: 10500-064).
(§1) Effects of the synthesized compounds on EBC-1 and fibroblast cell viability was measured via CellTiter-Glo® luminescent cell viability assay (Promega, Madison, WI, USA) according to the manufacturer’s instructions. Briefly, cells were plated at 1000 cells/well onto a flat-bottomed, white 96 well plate (BRANDplates, cat. no.: 781965). After 24 h, cells were treated for 72 h with either the desired 4-fold serial diluted compound concentrations or vehicle (0.2% DMSO) control. After the treatment, the luminescence signal was recorded using a microplate reader (BioTek Synergy 2 Multi-Mode Reader, BioTek, Winooski, VT, USA). Dose–response curves (using a non-linear regression model) were generated and IC50 values were determined using Graph Pad Prism 5.02 software (GraphPad Software, San Diego, CA, USA).
(In ATP-based viability assays light output follows the ATP content of the culture.)

For another series, the system named is c-Met. Put plainly: c-Met phosphorylation in EBC-1 cells by western blot. It counts as cell-based. To be noted: 100 nM, 6 h. As to the method: To analyze the effect of the compounds on c-Met phosphorylation, EBC-1 cells were seeded in six well plates and grown to 90% confluence. […] Cells were incubated with the compounds for 6 h at 37 °C in a CO2 incubator. After the incubation, western blot analysis was performed. To investigate GnRH-R protein level, cells were seeded in six well plates and grown to 90% confluence, then western blot analysis was applied.
Bands were visualized via Enhanced Chemiluminescence detection system (Western Lightning ECL Pro, PerkinElmer, Waltham, MA, USA, cat. no.: NEL122001EA).
A general note: In western blotting, separated proteins are transferred to a membrane and probed.

In series [2] the test system is primary human skin fibroblast cells. Kind of series: CellTiter-Glo cell viability assay on primary skin fibroblast cells. It counts as cell-based. To be noted: GnRHR-negative cells, 72 h treatment, read-out: IC50, viability inhibition on primary human skin fibroblast cells. As to the method:
Primary human skin fibroblast cells (fibroblast cells) were gifted by the Institute of Genomic Medicine and Rare Disorders, Semmelweis University (Budapest, Hungary). Fibroblast cells were cultured in Dulbecco’s modified Eagle’s medium (DMEM) (Thermo Fisher Scientific, cat. no.: 41965039) supplemented with 10% FBS (Thermo Fisher Scientific), 1% penicillin–streptomycin (Thermo Fisher Scientific, cat. no.: 15070063) and 1% MEM Non-Essential Amino Acids Solution (Thermo Fisher Scientific, cat. no.: 11140035). Cell cultures were grown in vitro at 37 °C, 95% air and 5% CO2 atmosphere.
as §1

A further series addresses T1, recombinant c-Met kinase (Homo sapiens, UniProt P08581).
T1 construct: purchased ProQinase 0171-0000-1
Kind of series: In vitro inhibition of recombinant c-Met kinase (ADP-Glo). It is filed as biochemical. To be noted: recombinant kinase assay, ATP 3.1 µM. How it is done:
Reaction buffer was prepared according to ProQinase’s recommendation [60 mM HEPES, 3 mM MgCl2, 3 mM MnCl2, 3 µM Na3VO4, 1.2 mM DTT (dithiothreitol), and 50 µg/mL PEG20,000, (reagents were obtained from Merck Millipore)]. Enzyme activity was assayed in 384 well, low-volume white microtiter plates (Corning®, Merck Millipore, cat. no.: CLS4513-50EA). Compounds were preincubated with c-Met kinase for 30 min at room temperature and reactions were started by adding the substrate–ATP mixture. Reaction time was 60 min at room temperature. Enzyme reaction was stopped using ADP-Glo™ Kinase Assay (Promega, cat. no.: V6930) according to the manufacturer’s instructions (40 min incubation with ADP-Glo™ Reagent, 30 min incubation with Kinase detection reagent at 25 °C). All measurements were performed using a Synergy 2 Multi-Mode Reader (BioTek, Winooski, VT, USA). Raw enzyme activity values were converted to relative activity data using positive and negative controls.
For orientation: ADP-Glo first removes unused ATP, then detects ADP through luciferase.

Series [3] in a line: pH-dependent artificial membrane permeability assay (PAMPA). It is filed as in vitro ADME. As to the method: An artificial-membrane-based system (BD Gentest™ Pre-Coated PAMPA plate, Corning, cat. no.: 353015) was used to determine the pH-dependent membrane permeability of the compounds. In this method, the protocol provided by the manufacturer was followed with minor modifications. Four different pH values were applied per compound. […] Stock solutions of compounds in DMSO were diluted to 100 µM in each PBS. PBS solutions were loaded into the donor wells, but the acceptor wells were filled with physiological PBS (pH = 7.4). The system was gently shaken (BioSan Thermo-Shaker PST-60HL) for 5 h at 25 °C. […] Calculation formula and the calculated data are available in the Supplementary Information, Section S4. page 11: S4. PAMPA Calculation formula: −ln(1 − CaCe) Pe = 1 1 A ∗ (Vd + Va) ∗ t Ce = (Cd ∗ Vd + Ca∗ Va)/(Vd + Va) R = 1 − Cd ∗ Vd + Ca∗ Va C0 ∗ Vd Pe = permeability (cm/s) R = mass retention (percentage loss of compound due to non-specific binding to the plastic surfaces during the permeation assay) A = membrane area (cm2) c0 = initial donor concentration ca = final acceptor concentration cd = final donor concentration ce = equilibrium concentration t = incubation time (sec) Va = acceptor volume (mL) Vd = donor volume (mL)

The next series addresses T2, prostate cancer GnRHR (Homo sapiens, UniProt P30968).
T2 construct: the human prostate cancer specimen was obtained from a patient at the time of initial surgical treatment; from tissue; host or cells: human prostate cancer surgical specimen, membranes
T2 sequence (P30968 1-328): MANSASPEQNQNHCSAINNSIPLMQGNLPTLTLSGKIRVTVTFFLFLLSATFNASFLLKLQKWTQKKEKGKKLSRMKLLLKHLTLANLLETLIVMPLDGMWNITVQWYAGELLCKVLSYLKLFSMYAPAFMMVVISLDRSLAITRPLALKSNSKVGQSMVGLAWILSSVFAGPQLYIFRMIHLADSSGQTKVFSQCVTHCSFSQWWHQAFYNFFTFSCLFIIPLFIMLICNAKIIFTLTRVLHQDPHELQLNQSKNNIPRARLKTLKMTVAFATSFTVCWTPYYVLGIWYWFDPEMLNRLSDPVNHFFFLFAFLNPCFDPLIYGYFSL
Put plainly: Radioligand competition assay, [125I]-[D-Trp6]-GnRH-I displacement, human prostate cancer membranes. To be noted: inhibition of [125I]-[D-Trp6]-GnRH-I binding to membranes. As to the method:
(§2) The collection and use of the tissue samples for our studies were approved by the local Institutional Ethics Committee. Normal human pituitary (anterior lobe) tissue was collected at autopsy and the human prostate cancer specimen was obtained from a patient at the time of initial surgical treatment. The ligand competition assay was performed as described previously.

A further series concerns the target T3, human pituitary GnRHR (Homo sapiens, UniProt P30968).
T3 construct: Normal human pituitary (anterior lobe) tissue was collected at autopsy; from tissue; host or cells: normal human pituitary (anterior lobe), autopsy tissue, membranes
T3 sequence (P30968 1-328): T2 sequence (P30968 1-328)
Kind of series: Radioligand competition assay, [125I]-[D-Trp6]-GnRH-I displacement, human pituitary membranes. To be noted: inhibition of [125I]-[D-Trp6]-GnRH-I binding to membranes. As to the method:
as §2

As a reminder, the IC50 is the concentration at which inhibition is half-maximal. Broadly, the half-life is the time needed for the level to fall by half in the phase considered. A high value points to slow decline.

SMILES strings stand for the structures. Where two headings read alike, the source gives them in different places.

T1 sequence (P08581 25-1390): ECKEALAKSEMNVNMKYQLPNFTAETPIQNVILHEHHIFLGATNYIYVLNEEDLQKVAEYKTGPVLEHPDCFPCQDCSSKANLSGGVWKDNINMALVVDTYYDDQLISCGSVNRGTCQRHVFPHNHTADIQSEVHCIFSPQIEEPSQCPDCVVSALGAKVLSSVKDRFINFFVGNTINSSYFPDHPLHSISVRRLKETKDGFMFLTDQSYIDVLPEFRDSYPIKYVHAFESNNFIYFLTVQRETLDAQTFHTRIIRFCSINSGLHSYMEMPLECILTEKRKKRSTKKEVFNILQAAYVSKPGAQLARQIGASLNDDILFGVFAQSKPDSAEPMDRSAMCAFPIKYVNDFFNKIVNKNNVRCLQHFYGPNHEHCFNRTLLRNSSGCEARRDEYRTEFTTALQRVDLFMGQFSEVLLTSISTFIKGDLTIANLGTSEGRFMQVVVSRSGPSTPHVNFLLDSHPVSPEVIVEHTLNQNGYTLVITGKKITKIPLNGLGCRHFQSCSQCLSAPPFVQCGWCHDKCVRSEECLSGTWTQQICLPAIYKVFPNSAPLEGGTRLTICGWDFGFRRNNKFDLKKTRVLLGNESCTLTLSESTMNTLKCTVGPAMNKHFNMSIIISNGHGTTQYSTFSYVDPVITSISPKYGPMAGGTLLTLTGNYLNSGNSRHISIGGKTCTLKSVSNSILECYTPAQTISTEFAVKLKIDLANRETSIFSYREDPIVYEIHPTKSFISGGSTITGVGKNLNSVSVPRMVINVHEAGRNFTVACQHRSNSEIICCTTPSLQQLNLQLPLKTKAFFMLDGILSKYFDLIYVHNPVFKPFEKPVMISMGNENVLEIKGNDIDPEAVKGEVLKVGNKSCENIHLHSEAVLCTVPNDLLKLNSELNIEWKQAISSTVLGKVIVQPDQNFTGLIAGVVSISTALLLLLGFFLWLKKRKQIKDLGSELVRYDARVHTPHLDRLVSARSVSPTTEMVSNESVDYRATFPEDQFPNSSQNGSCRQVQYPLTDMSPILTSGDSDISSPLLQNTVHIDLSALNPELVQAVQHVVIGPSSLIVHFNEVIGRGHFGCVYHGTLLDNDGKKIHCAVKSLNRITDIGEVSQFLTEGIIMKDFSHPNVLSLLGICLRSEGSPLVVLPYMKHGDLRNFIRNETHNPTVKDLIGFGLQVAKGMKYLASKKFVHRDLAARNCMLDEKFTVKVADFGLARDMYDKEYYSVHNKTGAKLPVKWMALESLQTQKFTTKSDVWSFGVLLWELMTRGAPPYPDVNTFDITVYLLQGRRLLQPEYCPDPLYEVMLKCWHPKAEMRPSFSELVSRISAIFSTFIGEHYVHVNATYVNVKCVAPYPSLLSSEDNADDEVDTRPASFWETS

With `CC(Oc1cc(-c2cnn(C3CCN(CCO)CC3)c2)cnc1N)c1c(Cl)ccc(F)c1Cl` (centres unmarked) [MJ55*], in series [1], the “stability in cell culture medium” value is given as “stable”. Moreover, the IC50 was found to be 0.023 µM in the series with EBC-1 NSCLC cells (Homo sapiens, EBC-1); 2.6 µM in series [2] (Homo sapiens, Skin fibroblast); 0.039 µM at recombinant c-Met kinase. In addition, the “inhibition of c-Met phosphorylation in EBC-1 cells” value in the series with c-Met is “completely inhibited”. Moreover, in series [3] (early endosome-/lysosome-like pH (pH = 6.0 and 4.8)), the PAMPA permeability entry is listed as “near zero”.
Consider `CC(C)C[C@H](NC(=O)[C@@H](CCCCNC(=O)CCCC(=O)OCCN1CCC(n2cc(-c3cnc(N)c(OC(C)c4c(Cl)ccc(F)c4Cl)c3)cn2)CC1)NC(=O)[C@H](Cc1ccc(O)cc1)NC(=O)[C@H](CO)NC(=O)[C@H](Cc1c[nH]c2ccccc12)NC(=O)[C@H](Cc1c[nH]cn1)NC(=O)[C@@H]1CCC(=O)N1)C(=O)N[C@@H](CCCNC(=N)N)C(=O)N1CCC[C@H]1C(=O)NCC(N)=O` (stereo partly drawn) [[D-Lys^6(MJ55*)]–GnRH-I], for which the IC50 on prostate cancer GnRHR was 0.0297 ± 0.0031 µM; in the series with EBC-1 NSCLC cells it was 0.09 µM; in series [2], 3 µM; on human pituitary GnRHR, 0.0217 ± 0.0014 µM; on recombinant c-Met kinase, about 0.147 µM. This compound also gave a half-life in series [1] (half-life of the ester bond / conjugate in EMEM) of about 8 h. Also, the “inhibition of c-Met phosphorylation in EBC-1 cells” value in the series on c-Met is “blocked c-Met phosphorylation”.
Turning to `CC(C)C[C@H](NC(=O)[C@@H](CCCCN)NC(=O)[C@H](Cc1ccc(O)cc1)NC(=O)[C@H](CO)NC(=O)[C@H](Cc1c[nH]c2ccccc12)NC(=O)[C@H](Cc1cnc[nH]1)NC(=O)[C@@H]1CCC(=O)N1)C(=O)N[C@@H](CCCNC(=N)N)C(=O)N1CCC[C@H]1C(=O)NCC(N)=O` [[D-Lys^6]–GnRH-I, reference compound], the “stability in cell culture medium” value in series [1] is “stable”.
`Cn1c(=O)c2c(ncn2C)n(C)c1=O` [caffeine, reference compound]: the “PAMPA permeability over the investigated pH range” value in series [3] (PAMPA) was “remained constant”.
As to `C[C@@H](Oc1cc(-c2cnn(C3CCNCC3)c2)cnc1N)c1c(Cl)ccc(F)c1Cl` [crizotinib*], the IC50 in the series on EBC-1 NSCLC cells (Homo sapiens, EBC-1) was determined as 0.028 µM; in series [2] (Homo sapiens, Skin fibroblast) it was 2.6 µM.
